PubChem BioAssay AID1963959 (Molecular Pharmacology Branch, DTP, NCI, 2024)

Test system: T-47D spheroids with HUVEC/MSC, viability
Assay: Anticancer human tumor T-47D cell line growth inhibition [PI3K];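 further: spheroids exposed to agents for seven days before reading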;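 on viability, T/C: percent of DMSO vehicle control luminescence so 100% = untreated growth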
Conditions: for viability, T/C: stronger effect = lower value
Description: Combinatorial screen of targeted agents with the PI3K inhibitors inavolisib, alpelisib, duvelisib, and copanlisib in multi-cell type tumor spheroids
A high-throughput screen of multi-cell type tumor spheroids was designed to identify active combinations of targeted small molecules and PI3K pathway inhibitors. Complex spheroids include a stromal component modeled by human endothelial cells (HUVEC) and fibroblasts modeled by human mesenchymal stem cells (MSCs). The concentration ranges selected for each drug and investigational agent were based upon clinically achievable concentrations if the clinical Cmax of the agent was known.
Compounds. The drugs and investigational agents: inavolisib (NSC800729), alpelisib (NSC765974), duvelisib (NSC772469), copanlisib (NSC816437), ipatasertib (NSC767898), afuresertib (NSC778305), talazoparib (NSC767125), sapanisertib (NSC764658), selumetinib (NSC741078), tovorafenib (DAY101, NSC766906), vemurafenib (NSC761431), ravoxertinib (NSC781343), sotorasib (NSC818433), MRTX1133 (NSC 836407), abemaciclib (NSC 768073), palbociclib (NSC758247), venetoclax (NSC 766270), SY5609 (NSC837396), enzalutamide (NSC755605), and darolutamide (NSC825331), were obtained from the National Cancer Institute (NCI) Developmental Therapeutics Program Chemical Repository. The FDA-approved anticancer drug set is available from the NCI Developmental Therapeutics Program. […] The stock solutions were prepared in dimethyl sulfoxide (DMSO, Sigma-Aldrich, St. Louis, MO, cat. D2650) at 800-fold the tested concentration and stored at -70 degrees C prior to their use. All drugs and investigational agents were tested over a range starting from a high concentration at or near the clinical Cmax and decreasing in half-log increments. If the clinical Cmax for an agent had not been determined, the highest concentration tested was 10 microM.
Cell Culture. All cells were maintained in an incubator at 37 degrees C and 5% CO2 with 95% humidity. The PDC lines were cultured according to standard operating procedures established by the NCI PDMR (https://pdmr.cancer.gov/sops/default.htm). All PDCs were thawed and cultured in Matrigel-coated flasks prepared with a working solution of 1X Ham's F-12 nutrient mix, without supplementation (Invitrogen, Waltham, MA, cat. 11765054), 100 U/mL penicillin-streptomycin (Invitrogen, cat. 15140122), and 2.5% Matrigel (Corning Inc., Corning, NY, cat. 354248) for the first three passages. The 354836-022-R-J1-PDC, 475296-252-R-J1-PDC, and 997726-040-R-J2-PDC lines were cultured in 6A media, which includes advanced DMEM/F-12 (Thermo Fisher Scientific, cat. 12634028), 10 mM HEPES (Thermo Fisher Scientific, cat. 15630080), 1X GlutaMAX supplement (Thermo Fisher Scientific, cat. 35050061), 0.1 mg/mL primocin (InvivoGen, San Diego, CA, cat. ant-pm-2), 10% defined fetal bovine serum, heat inactivated (HyClone Laboratories Inc., Logan, UT, cat. SH30070.03HI), 50% L-WRN conditioned media (ATCC, cat. CRL-3276), 1.25 mM N-Acetyl-L-cysteine (Sigma-Aldrich, cat. A9165), 10 mM nicotinamide (Sigma-Aldrich, cat. N0636), 1X B-27 supplement (Thermo Fisher Scientific, cat. 17504044), 1X N-2 supplement (Thermo Fisher Scientific, cat. 17502048), and 10 microM Y-27632 dihydrochloride (Tocris Bioscience, Bristol, United Kingdom, cat. 1254). The 624824-186-R-J2-PDC line was cultured in 6C/Colon 1B media, which includes all 6A media components plus 50 ng/mL human EGF recombinant protein (Thermo Fisher Scientific, cat. PHG0311). […]

[1] = curve of first compound, second compound 0.00316 µM
[2] = curve of first compound, second compound 0.01 µM
[3] = curve of first compound, second compound 0.0316 µM
[4] = curve of first compound, second compound 0.1 µM
[5] = curve of first compound, second compound 0.316 µM
[6] = curve of first compound, second compound 1 µM
[7] = second compound 0.00316 µM, first compound 0.0316 µM
[8] = second compound 0.00316 µM, first compound 0.1 µM
[9] = second compound 0.01 µM, first compound 0.0316 µM
[10] = second compound 0.01 µM, first compound 0.1 µM
[11] = second compound 0.0316 µM, first compound 0.0316 µM
[12] = second compound 0.0316 µM, first compound 0.1 µM
[13] = second compound 0.1 µM, first compound 0.0316 µM
[14] = second compound 0.1 µM, first compound 0.1 µM
[15] = second compound 0.316 µM, first compound 0.0316 µM
[16] = second compound 0.316 µM, first compound 0.1 µM
[17] = second compound 1 µM, first compound 0.0316 µM
[18] = second compound 1 µM, first compound 0.1 µM

C[C@@H](NC(=O)c1ncnc(N)c1Cl)c1ncc(C(=O)Nc2cc(C(F)(F)F)c(Cl)cn2)s1 + COc1c(OCCCN2CCOCC2)ccc2c3n(c(=NC(=O)c4cnc(N)nc4)nc12)CCN3
IC50 [1]: > 10000 nM | IC50 [2]: > 10000 nM | IC50 [3]: > 10000 nM | IC50 [4]: < 31.6 nM | IC50 [5]: < 31.6 nM | IC50 [6]: < 31.6 nM | viability, T/C [7]: 92.7% | viability, T/C [8]: 82.9% | viability, T/C (second compound 0.00316 µM, first compound 0.316 µM): 97.8% | viability, T/C (second compound 0.00316 µM, first compound 1 µM): 106% | viability, T/C (second compound 0.00316 µM, first compound 3.16 µM): 77.7% | viability, T/C (second compound 0.00316 µM, first compound 10 µM): 86.6% | viability, T/C [9]: 93.5% | viability, T/C [10]: 90.5% | viability, T/C (second compound 0.01 µM, first compound 0.316 µM): 76.2% | viability, T/C (second compound 0.01 µM, first compound 1 µM): 78.5% | viability, T/C (second compound 0.01 µM, first compound 3.16 µM): 86.1% | viability, T/C (second compound 0.01 µM, first compound 10 µM): 85% | viability, T/C [11]: 66.1% | viability, T/C [12]: 71.2% | viability, T/C (second compound 0.0316 µM, first compound 0.316 µM): 55.1% | viability, T/C (second compound 0.0316 µM, first compound 1 µM): 61.7% | viability, T/C (second compound 0.0316 µM, first compound 3.16 µM): 65.4% | viability, T/C (second compound 0.0316 µM, first compound 10 µM): 68.9% | viability, T/C [13]: 40.3% | viability, T/C [14]: 32.9% | viability, T/C (second compound 0.1 µM, first compound 0.316 µM): 35.5% | viability, T/C (second compound 0.1 µM, first compound 1 µM): 38.4% | viability, T/C (second compound 0.1 µM, first compound 3.16 µM): 48% | viability, T/C (second compound 0.1 µM, first compound 10 µM): 38.3% | viability, T/C [15]: 11.7% | viability, T/C [16]: 12.6% | viability, T/C (second compound 0.316 µM, first compound 0.316 µM): 17.4% | viability, T/C (second compound 0.316 µM, first compound 1 µM): 16% | viability, T/C (second compound 0.316 µM, first compound 3.16 µM): 14.6% | viability, T/C (second compound 0.316 µM, first compound 10 µM): 20.3% | viability, T/C [17]: 4.16% | viability, T/C [18]: 8.23% | viability, T/C (second compound 1 µM, first compound 0.316 µM): 6.02% | viability, T/C (second compound 1 µM, first compound 1 µM): 4.08% | viability, T/C (second compound 1 µM, first compound 3.16 µM): 4.3% | viability, T/C (second compound 1 µM, first compound 10 µM): 7.55%

CC(=O)c1c(C)c2cnc(Nc3ccc(N4CCNCC4)cn3)nc2n(C2CCCC2)c1=O + CC(Nc1ccc2c(c1)OCCn1cc(N3C(=O)OCC3C(F)F)nc1-2)C(N)=O
IC50 [1]: > 100 nM | IC50 [2]: > 100 nM | IC50 [3]: > 100 nM | IC50 [4]: > 100 nM | IC50 [5]: > 100 nM | IC50 [6]: < 0.316 nM | viability, T/C (second compound 0.00316 µM, first compound 0.000316 µM): 92.1% | viability, T/C (second compound 0.00316 µM, first compound 0.001 µM): 90.5% | viability, T/C (second compound 0.00316 µM, first compound 0.00316 µM): 82.9% | viability, T/C (second compound 0.00316 µM, first compound 0.01 µM): 95.3% | viability, T/C [7]: 64.4% | viability, T/C [8]: 86% | viability, T/C (second compound 0.01 µM, first compound 0.000316 µM): 83.8% | viability, T/C (second compound 0.01 µM, first compound 0.001 µM): 121% | viability, T/C (second compound 0.01 µM, first compound 0.00316 µM): 71.9% | viability, T/C (second compound 0.01 µM, first compound 0.01 µM): 75.3% | viability, T/C [9]: 78.6% | viability, T/C [10]: 69.8% | viability, T/C (second compound 0.0316 µM, first compound 0.000316 µM): 70.1% | viability, T/C (second compound 0.0316 µM, first compound 0.001 µM): 85.8% | viability, T/C (second compound 0.0316 µM, first compound 0.00316 µM): 76.1% | viability, T/C (second compound 0.0316 µM, first compound 0.01 µM): 83.6% | viability, T/C [11]: 69.8% | viability, T/C [12]: 67.1% | viability, T/C (second compound 0.1 µM, first compound 0.000316 µM): 84.7% | viability, T/C (second compound 0.1 µM, first compound 0.001 µM): 89.8% | viability, T/C (second compound 0.1 µM, first compound 0.00316 µM): 76% | viability, T/C (second compound 0.1 µM, first compound 0.01 µM): 65.7% | viability, T/C [13]: 77% | viability, T/C [14]: 54.5% | viability, T/C (second compound 0.316 µM, first compound 0.000316 µM): 59.4% | viability, T/C (second compound 0.316 µM, first compound 0.001 µM): 65.9% | viability, T/C (second compound 0.316 µM, first compound 0.00316 µM): 48.9% | viability, T/C (second compound 0.316 µM, first compound 0.01 µM): 56.7% | viability, T/C [15]: 43.4% | viability, T/C [16]: 60.1% | viability, T/C (second compound 1 µM, first compound 0.000316 µM): 39.9% | viability, T/C (second compound 1 µM, first compound 0.001 µM): 55.6% | viability, T/C (second compound 1 µM, first compound 0.00316 µM): 49.5% | viability, T/C (second compound 1 µM, first compound 0.01 µM): 41% | viability, T/C [17]: 38.9% | viability, T/C [18]: 32.6%

CCN1CCN(Cc2ccc(Nc3ncc(F)c(-c4cc(F)c5nc(C)n(C(C)C)c5c4)n3)nc2)CC1
viability, T/C (compound 0.00316 µM): 104% [middle of 4 runs] | viability, T/C (compound 0.01 µM): 91.4% [middle of 4 runs] | viability, T/C (compound 0.0316 µM): 102% [middle of 4 runs] | viability, T/C (compound 0.1 µM): 90.4% [middle of 4 runs] | viability, T/C (compound 0.316 µM): 90.4% [middle of 4 runs] | viability, T/C (compound 1 µM): 91.2% [middle of 4 runs] | IC50 (curve of compound): > 1000 nM
